Results from ChEMBL document CHEMBL5579824, “Novel Hsp90-Targeting PROTACs: Enhanced synergy with cisplatin in combination therapy of cervical cancer” (Eur J Med Chem, 2024).
pIC50: −log10 of the molar value. Calls of active or inactive are those of the source. The calls are words filed in the database; no cut-off is given here.

Assays:
SiHa = test: Antiproliferative activity against human SiHa cells assessed as reduction in cell viability incubated for 72 hrs by CCK-8 assay; assay type: functional, cell-based
[1] = molecular target: T1, Protein cereblon/Heat shock protein HSP 90-alpha/Heat shock protein HSP 90-beta (Homo sapiens) (UniProt P07900+P08238+Q96SW2); test: Protac activity at CRBN/Hsp90 in human SiHa cells assessed as induction of Hsp90 degradation at 1 uM incubated for 10 hrs by Western blot analysis; assay type: cell-based
[2] = molecular target: T1, Protein cereblon/Heat shock protein HSP 90-alpha/Heat shock protein HSP 90-beta (Homo sapiens); test: Protac activity at CRBN/Hsp90 in human SiHa cells assessed as induction of Hsp90 degradation at 1 uM incubated for 2 hrs by Western blot analysis; assay type: cell-based
[3] = molecular target: T1, Protein cereblon/Heat shock protein HSP 90-alpha/Heat shock protein HSP 90-beta (Homo sapiens); test: Protac activity at CRBN/Hsp90 in human SiHa cells assessed as induction of Hsp90 degradation (causing hook effect) at > 0.1 uM incubated for 10 hrs by Western blot analysis; assay type: cell-based
[4] = molecular target: T2, von Hippel-Lindau disease tumor suppressor/Heat shock protein HSP 90-alpha/Heat shock protein HSP 90-beta (Homo sapiens) (UniProt P07900+P08238+P40337); test: Protac activity at VHL/Hsp90 in human SiHa cells assessed as induction of Hsp90 degradation at 1 uM incubated for 10 hrs by Western blot analysis; assay type: cell-based
[5] = molecular target: T2, von Hippel-Lindau disease tumor suppressor/Heat shock protein HSP 90-alpha/Heat shock protein HSP 90-beta (Homo sapiens); test: Protac activity at VHL/Hsp90 in human SiHa cells assessed as induction of Hsp90 degradation (causing hook effect) at > 0.1 uM incubated for 10 hrs by Western blot analysis; assay type: cell-based

T2 sequence (P08238 whole entry, looked up, other chains not shown): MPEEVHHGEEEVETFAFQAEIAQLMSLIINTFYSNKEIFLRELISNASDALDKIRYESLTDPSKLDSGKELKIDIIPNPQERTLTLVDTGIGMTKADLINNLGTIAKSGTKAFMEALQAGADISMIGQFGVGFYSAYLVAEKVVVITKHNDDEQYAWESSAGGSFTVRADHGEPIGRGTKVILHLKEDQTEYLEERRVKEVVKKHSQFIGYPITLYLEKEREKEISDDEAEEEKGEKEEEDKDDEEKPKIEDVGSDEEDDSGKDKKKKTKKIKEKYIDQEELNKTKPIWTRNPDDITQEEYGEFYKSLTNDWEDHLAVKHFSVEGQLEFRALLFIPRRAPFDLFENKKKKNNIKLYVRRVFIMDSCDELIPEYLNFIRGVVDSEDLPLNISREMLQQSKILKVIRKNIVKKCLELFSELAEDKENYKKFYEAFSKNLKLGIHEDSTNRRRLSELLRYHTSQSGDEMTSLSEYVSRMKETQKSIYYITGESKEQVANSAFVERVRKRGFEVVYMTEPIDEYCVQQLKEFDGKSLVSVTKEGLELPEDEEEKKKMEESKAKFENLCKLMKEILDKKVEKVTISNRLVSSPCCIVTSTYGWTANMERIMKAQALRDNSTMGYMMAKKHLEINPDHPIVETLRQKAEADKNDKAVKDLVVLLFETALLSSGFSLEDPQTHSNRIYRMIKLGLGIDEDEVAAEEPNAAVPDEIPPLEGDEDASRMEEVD
T2 sequence (P40337 whole entry, looked up, other chains not shown): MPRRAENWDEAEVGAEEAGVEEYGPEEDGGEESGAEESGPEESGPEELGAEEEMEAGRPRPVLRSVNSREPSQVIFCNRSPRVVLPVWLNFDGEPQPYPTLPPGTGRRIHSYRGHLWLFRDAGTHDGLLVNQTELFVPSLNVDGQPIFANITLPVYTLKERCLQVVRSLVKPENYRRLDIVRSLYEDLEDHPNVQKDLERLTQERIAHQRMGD

## CC1(C)CC(=O)c2c(C(F)(F)F)nn(-c3ccc(C(N)=O)c(N[C@H]4CC[C@H](NCCCCCCCCCC(=O)Nc5cccc6c5CN(C5CCC(=O)NC5=O)C6=O)CC4)c3)c2C1 (some centres not stated)
SiHa
  pIC50: 5.28
[1]
  Activity: inactive

## CC1(C)CC(=O)c2c(C(F)(F)F)nn(-c3ccc(C(N)=O)c(N[C@H]4CC[C@H](OC(=O)CNC(=O)CCCCNc5cccc6c5CN(C5CCC(=O)NC5=O)C6=O)CC4)c3)c2C1 (some centres not stated)
SiHa
  pIC50: 6.51

## CC1(C)CC(=O)c2c(C(F)(F)F)nn(-c3ccc(C(N)=O)c(N[C@H]4CC[C@H](OC(=O)CNC(=O)CCCCCCCCCNc5cccc6c5CN(C5CCC(=O)NC5=O)C6=O)CC4)c3)c2C1 (some centres not stated)
SiHa
  pIC50: 6.85

## CC1(C)CC(=O)c2c(C(F)(F)F)nn(-c3ccc(C(N)=O)c(N[C@H]4CC[C@H](OC(=O)CNC(=O)CCCNc5cccc6c5CN(C5CCC(=O)NC5=O)C6=O)CC4)c3)c2C1 (some centres not stated)
SiHa
  pIC50: 7.15
[1]
  Activity: Active

## CN1C(=O)CCC(N2Cc3c(NCCCCCCCC(=O)NCC(=O)O[C@H]4CC[C@H](Nc5cc(-n6nc(C(F)(F)F)c7c6CC(C)(C)CC7=O)ccc5C(N)=O)CC4)cccc3C2=O)C1=O (some centres not stated)
[2]
  Activity: inactive

## CC1(C)CC(=O)c2c(C(F)(F)F)nn(-c3ccc(C(N)=O)c(NCCCNC(=O)COCCOCCNc4cccc5c4CN(C4CCC(=O)NC4=O)C5=O)c3)c2C1 (configuration not stated)
SiHa
  pIC50: 5.14
[1]
  Activity: inactive

## CC1(C)CC(=O)c2c(C(F)(F)F)nn(-c3ccc(C(N)=O)c(N[C@H]4CC[C@H](OC(=O)CN)CC4)c3)c2C1 [SNX 5422]
SiHa
  pIC50: 7.85

## CC1(C)CC(=O)c2c(C(F)(F)F)nn(-c3ccc(C(N)=O)c(NCCCNC(=O)CCCCCNc4cccc5c4CN(C4CCC(=O)NC4=O)C5=O)c3)c2C1 (configuration not stated)
SiHa
  pIC50: 5.02
[1]
  Activity: inactive

## Cc1ncsc1-c1ccc([C@H](C)NC(=O)[C@@H]2C[C@@H](O)CN2C(=O)[C@@H](NCCCCCC(=O)NCC(=O)O[C@H]2CC[C@H](Nc3cc(-n4nc(C(F)(F)F)c5c4CC(C)(C)CC5=O)ccc3C(N)=O)CC2)C(C)(C)C)cc1
SiHa
  pIC50: 6.18

## CC1(C)CC(=O)c2c(C(F)(F)F)nn(-c3ccc(C(N)=O)c(N[C@H]4CC[C@H](OC(=O)CNC(=O)CCCCCNc5cccc6c5CN(C5CCC(=O)NC5=O)C6=O)CC4)c3)c2C1 (some centres not stated)
SiHa
  pIC50: 6.34
[1]
  Activity: Active

## CC1(C)CC(=O)c2c(C(F)(F)F)nn(-c3ccc(C(N)=O)c(NCCCNC(=O)CCCCCCCCCCNc4cccc5c4CN(C4CCC(=O)NC4=O)C5=O)c3)c2C1 (configuration not stated)
SiHa
  pIC50: 6.25
[1]
  Activity: inactive

## CC1(C)CC(=O)c2c(C(F)(F)F)nn(-c3ccc(C(N)=O)c(N[C@H]4CC[C@H](NC(=O)CCCCCCCCCNc5cccc6c5CN(C5CCC(=O)NC5=O)C6=O)CC4)c3)c2C1 (some centres not stated)
SiHa
  pIC50: 6.72
[1]
  Activity: inactive

## CC1(C)CC(=O)c2c(C(F)(F)F)nn(-c3ccc(C(N)=O)c(N[C@H]4CC[C@H](OC(=O)CNC(=O)COCCOCCNc5cccc6c5C(=O)N(C5CCC(=O)NC5=O)C6=O)CC4)c3)c2C1 (some centres not stated)
SiHa
  pIC50: 7.40
[1]
  Activity: inactive
[3]
  Activity: inactive

## CC1(C)CC(=O)c2c(C(F)(F)F)nn(-c3ccc(C(N)=O)c(NCCCNC(=O)CCCCCCCNc4cccc5c4CN(C4CCC(=O)NC4=O)C5=O)c3)c2C1 (configuration not stated)
SiHa
  pIC50: 5.26
[1]
  Activity: inactive

## CC1(C)CC(=O)c2c(C(F)(F)F)nn(-c3ccc(C(N)=O)c(N[C@H]4CC[C@H](OC(=O)CNC(=O)CCCCCCNc5cccc6c5CN(C5CCC(=O)NC5=O)C6=O)CC4)c3)c2C1 (some centres not stated)
SiHa
  pIC50: 6.62
[1]
  Activity: Active

## CC1(C)CC(=O)c2c(C(F)(F)F)nn(-c3ccc(C(N)=O)c(NCCCNC(=O)CCCCCCCCCNc4cccc5c4CN(C4CCC(=O)NC4=O)C5=O)c3)c2C1 (configuration not stated)
SiHa
  pIC50: 6.37
[1]
  Activity: inactive

## Cc1ncsc1-c1ccc([C@H](C)NC(=O)[C@@H]2C[C@@H](O)CN2C(=O)[C@@H](NCCCCCCCC(=O)NCC(=O)O[C@H]2CC[C@H](Nc3cc(-n4nc(C(F)(F)F)c5c4CC(C)(C)CC5=O)ccc3C(N)=O)CC2)C(C)(C)C)cc1
SiHa
  pIC50: 6.77
[4]
  Activity: Active

## Cc1ncsc1-c1ccc([C@H](C)NC(=O)[C@@H]2C[C@@H](O)CN2C(=O)[C@@H](NCCCCCCCCCC(=O)NCC(=O)O[C@H]2CC[C@H](Nc3cc(-n4nc(C(F)(F)F)c5c4CC(C)(C)CC5=O)ccc3C(N)=O)CC2)C(C)(C)C)cc1
SiHa
  pIC50: 6.64
[4]
  Activity: Active

## CC1(C)CC(=O)c2c(C(F)(F)F)nn(-c3ccc(C(N)=O)c(N[C@H]4CC[C@H](NC(=O)CNC(=O)CCCCCCCCCNc5cccc6c5CN(C5CCC(=O)NC5=O)C6=O)CC4)c3)c2C1 (some centres not stated)
SiHa
  pIC50: 6.12
[1]
  Activity: inactive

## Cc1ncsc1-c1ccc([C@H](C)NC(=O)[C@@H]2C[C@@H](O)CN2C(=O)[C@@H](NCCOCCOCC(=O)NCC(=O)O[C@H]2CC[C@H](Nc3cc(-n4nc(C(F)(F)F)c5c4CC(C)(C)CC5=O)ccc3C(N)=O)CC2)C(C)(C)C)cc1
SiHa
  pIC50: 7.52
[4]
  Activity: inactive
[5]
  Activity: inactive
